Test results as given in patent US12331027B2, “Herbicidal pyridylethers” (BASF SE, priority 2017, dated 2025).

Columns and labels:
Assay in all cases: greenhouse post-emergence herbicidal test
Type in all cases: in vivo
[1] = system: AMARE (Amaranthus retroflexus); conditions: post-emergence method, application rate 16 g/ha, scale from 0 to 100; for pest or weed control at 16 g/ha: Amaranthus retroflexus, read-out: herbicidal activity against AMARE
From the text: (§1) The seeds of the test plants were sown separately for each species. For the post-emergence treatment, the test plants were first grown to a height of 3 to 15 cm, depending on the plant habit, and only then treated with the active ingredients which had been suspended or emulsified in water. For this purpose, the test plants were either sown directly and grown in the same containers, or they were first grown separately as seedlings and transplanted into the test containers a few days prior to treatment. Depending on the species, the plants were kept at 10-25° C. or 20-35° C., respectively. The test period extended over 2 to 4 weeks. During this time, the plants were tended, and their response to the individual treatments was evaluated. Evaluation was carried out using a scale from 0 to 100. 100 means no emergence of the plants, or complete destruction of at least the aerial moieties, and 0 means no damage, or normal course of growth. A good herbicidal activity is given at values of at least 70 and a very good herbicidal activity is given at values of at least 85. [table]

[2] = system: SETVI (Setaria viridis); conditions: scale from 0 to 100; for herbicidal activity against SETVI: post-emergence method, application rate 16 g/ha; for damages SETVI: post emergence control 7 days after treatment (greenhouse)
From the text: as §1

[3] = system: ECHCG (Echinocloa crus-galli); conditions: post-emergence method, application rate 16 g/ha, scale from 0 to 100
From the text: as §1

[4] = system: CHEAL (Chenopodium album); conditions: post-emergence method, application rate 16 g/ha, scale from 0 to 100
From the text: as §1

[5] = system: POLCO (Polygonum convolvulus); conditions: post-emergence method, application rate 16 g/ha, scale from 0 to 100
From the text: as §1

[6] = system: AVEFA (Avena fatua); conditions: post emergence control 7 days after treatment (greenhouse), scale from 0 to 100
From the text: as §1

[7] = system: ALOMY (Alopecurus myosuroides); conditions: post emergence control 7 days after treatment (greenhouse), scale from 0 to 100
From the text: as §1

CCOC(=O)COc1ccccc1Oc1nc(-n2nc(C)n(C(F)F)c2=O)c(F)cc1Cl [Example 1, Ethyl 2-[2-[[3-chloro-6-[4-(difluoromethyl)-3-methyl-5-oxo-1,2,4-triazol-1-yl]-5-fluoro-2-pyridyl]oxy]phenoxy]acetate]
pest or weed control at 16 g/ha [1]: ≥ 85%

CCOC(=O)COc1ccccc1Oc1nc(-n2nc(C(F)(F)F)n(C)c2=O)c(F)cc1C#N [Example 2, Ethyl 2-[2-[[3-cyano-5-fluoro-6-[4-methyl-5-oxo-3-(trifluoromethyl)-1,2,4-triazol-1-yl]-2-pyridyl]oxy]phenoxy]acetate]
herbicidal activity against SETVI [2]: very good (a very good herbicidal activity is given at values of at least 85) | herbicidal activity against ECHCG [3]: very good (a very good herbicidal activity is given at values of at least 85) | pest or weed control at 16 g/ha [1]: ≥ 85%

CCOC(=O)COc1ccccc1Oc1nc(-n2nc(C(F)(F)F)n(C)c2=O)c(F)cc1C(N)=S [Example 3, Ethyl 2-[2-[[3-carbamothioyl-5-fluoro-6-[4-methyl-5-oxo-3-(trifluoromethyl)-1,2,4-triazol-1-yl]-2-pyridyl]oxy]phenoxy]acetate]
pest or weed control at 16 g/ha [1]: ≥ 70%

CCOC(=O)COc1ccccc1Oc1nc(-n2nc3n(c2=O)CCCC3)c(Cl)cc1Cl [Example 4, Ethyl 2-[2-[[3,5-dichloro-6-(3-oxo-5,6,7,8-tetrahydro-[1,2,4]triazolo[4,3-a]pyridin-2-yl)-2-pyridyl]oxy]phenoxy]acetate]
pest or weed control at 16 g/ha [1]: ≥ 70%

CCOC(=O)COc1ccccc1Oc1nc(-n2nc(C(C)(C)C)oc2=O)c(Cl)cc1Cl [Example 5, Ethyl 2-[2-[[6-(5-tert-butyl-2-oxo-1,3,4-oxadiazol-3-yl)-3,5-dichloro-2-pyridyl]oxy]phenoxy]acetate]
herbicidal activity against CHEAL [4]: very good (a very good herbicidal activity is given at values of at least 85) | pest or weed control at 16 g/ha [1]: ≥ 85%

CCOC(=O)COc1ccccc1Oc1nc(-c2nn(C)c(OC(F)F)c2Cl)c(F)cc1Cl [Example 6, Ethyl 2-[2-[[3-chloro-6-[4-chloro-5-(difluoromethoxy)-1-methyl-pyrazol-3-yl]-5-fluoro-2-pyridyl]oxy]phenoxy]acetate]
pest or weed control at 16 g/ha [1]: ≥ 85%

CCOC(=O)COc1ncccc1Oc1nc(-n2c(=O)n(C)c(=O)n(C)c2=O)c(F)cc1Cl [Example 7, Ethyl 2-[[3-[[3-chloro-6-(3,5-dimethyl-2,4,6-trioxo-1,3,5-triazinan-1-yl)-5-fluoro-2-pyridyl]oxy]-2-pyridyl]oxy]acetate]
pest or weed control at 16 g/ha [1]: ≥ 70%

CCOC(=O)COc1ncccc1Oc1nc(-n2ncc(C(F)(F)F)c(C)c2=O)c(F)cc1Cl [Example 8, Ethyl 2-[[3-[[3-chloro-5-fluoro-6-[5-methyl-6-oxo-4-(trifluoromethyl)pyridazin-1-yl]-2-pyridyl]oxy]-2-pyridyl]oxy]acetate]
pest or weed control at 16 g/ha [1]: ≥ 85%

CCOC(=O)COc1ccccc1Oc1nc(-n2nc(C)n(C(F)F)c2=O)c(F)cc1F [Example 9]
herbicidal activity against SETVI [2]: good (A good herbicidal activity is given at values of at least 70) | herbicidal activity against ECHCG [3]: good (A good herbicidal activity is given at values of at least 70) | herbicidal activity against CHEAL [4]: good (A good herbicidal activity is given at values of at least 70)

CCOC(=O)COc1ncccc1Oc1nc(-n2nc(C)n(C(F)F)c2=O)c(F)cc1F [Example 14]
herbicidal activity against SETVI [2]: very good (a very good herbicidal activity is given at values of at least 85)

CCOC(=O)COc1ncccc1Oc1nc(-n2nc(C)n(C(F)F)c2=O)ccc1Cl [Example 16]
herbicidal activity against POLCO [5]: very good (a very good herbicidal activity is given at values of at least 85) | herbicidal activity against CHEAL [4]: very good (a very good herbicidal activity is given at values of at least 85) | herbicidal activity against AMARE [1]: very good (a very good herbicidal activity is given at values of at least 85)

CCOC(=O)COc1ccccc1Oc1nc(-n2nc(C(F)(F)F)n(C)c2=S)c(F)cc1C#N [Example 18]
herbicidal activity against SETVI [2]: good (A good herbicidal activity is given at values of at least 70) | herbicidal activity against AMARE [1]: very good (a very good herbicidal activity is given at values of at least 85)

CCOC(=O)COc1ccccc1Oc1nc(N2C(=O)OC(=C(C)C)C2=O)c(F)cc1Cl [Example 26, Ethyl 2-[2-[[3-chloro-5-fluoro-6-(5-isopropylidene-2,4-dioxo-oxazolidin-3-yl)-2-pyridyl]oxy]phenoxy]acetate]
herbicidal activity against SETVI [2]: very good (a very good herbicidal activity is given at values of at least 85) | herbicidal activity against POLCO [5]: very good (a very good herbicidal activity is given at values of at least 85) | herbicidal activity against CHEAL [4]: very good (a very good herbicidal activity is given at values of at least 85) | pest or weed control at 16 g/ha [1]: ≥ 85%

CCOC(=O)COc1ccccc1Oc1nc(N2C(=O)C3=C(CCCC3)C2=O)c(F)cc1Cl [Example 27, ethyl 2-[2-[[3-chloro-6-(1,3-dioxo-4,5,6,7-tetrahydroisoindol-2-yl)-5-fluoro-2-pyridyl]oxy]phenoxy]acetate]
herbicidal activity against SETVI [2]: very good (a very good herbicidal activity is given at values of at least 85) | herbicidal activity against POLCO [5]: very good (a very good herbicidal activity is given at values of at least 85) | herbicidal activity against ECHCG [3]: very good (a very good herbicidal activity is given at values of at least 85) | herbicidal activity against CHEAL [4]: very good (a very good herbicidal activity is given at values of at least 85) | pest or weed control at 16 g/ha [1]: ≥ 85%

COC(=O)COc1ccc(Oc2cc(-n3ncc(C(F)(F)F)c(C)c3=O)c(F)cc2Cl)cc1 [Example A2-11, reference compound]
damages SETVI ([2]; application rate 2 g/ha): 80 | damages SETVI ([2]; application rate 4 g/ha): 85 | damages AVEFA ([6]; application rate 8 g/ha): 70 | damages AVEFA ([6]; application rate 16 g/ha): 80 | damages ALOMY ([7]; application rate 2 g/ha): 60 | damages ALOMY ([7]; application rate 4 g/ha): 65

COC(=O)COc1ccc(Oc2nc(-n3ncc(C(F)(F)F)c(C)c3=O)c(F)cc2Cl)cc1 [example 28]
damages SETVI ([2]; application rate 2 g/ha): 90 | damages SETVI ([2]; application rate 4 g/ha): 95 | damages AVEFA ([6]; application rate 8 g/ha): 80 | damages AVEFA ([6]; application rate 16 g/ha): 98 | damages ALOMY ([7]; application rate 2 g/ha): 70 | damages ALOMY ([7]; application rate 4 g/ha): 75
